Experimental data taken from patent US20220062380A1 (priority 2018, published 2022).
Where no end group is shown, it is not given here.

Assays:
[1] = system: Swiss Webster mice; assay: Saelens precipitated withdrawal test, CRH antagonist vs. TCAP-1, Protocol A (Example 3); assay type: in vivo, mouse; settings: TCAP-1 250 nmole/kg per time point vs. CRH antagonist 20 mg/kg per time point; morphine-treated mice; naloxone 2.5 mg/kg i.p.
[2] = system: plasma corticosterone; assay: Plasma corticosterone levels in the Saelens precipitated withdrawal model, Protocol B (Example 3); assay type: in vivo, mouse; settings: morphine-treated mice, naloxone-precipitated withdrawal; for plasma corticosterone levels: TCAP-1 250 nmole/kg vs. CP154,526 5, 20, 50 mg/kg
Protocol: Two hours after the 11 a.m. injections, at 1 p.m., all mice received an intraperitoneal (“i.p.”) injection of Naloxone 2.5 mg/kg), baseline blood samples were taken and then they were immediately placed individually in an observation area and video recorded 20 minutes. The number of jumps (lifting of all feet off the ground) were recorded for 20 minutes. A second set of blood samples were taken post-jumps (about 30 minutes after the naloxone administration.
The same protocol as in Protocol A was followed with the exception that on day 2, there were three Group 3 mice (10 per group) which were administered: 5 mg/kg, 20 mg/kg or 50 mg/kg of the CRH antagonist CP154,526.

[3] = system: Swiss Webster mice; assay: Saelens precipitated withdrawal test, single dose TCAP-1 post-morphine (Example 2); assay type: in vivo, mouse; settings: Group 4: TCAP-1 500 nmole/kg s.c. single dose post-morphine; naloxone 10 mg/kg i.p.
[4] = system: Swiss Webster mice; assay: Saelens precipitated withdrawal test, CRH antagonist dose response vs. TCAP-1, Protocol B, jumps (Example 3); assay type: in vivo, mouse; settings: TCAP-1 250 nmole/kg vs. CP154,526 5, 20, 50 mg/kg; morphine-treated mice; naloxone 2.5 mg/kg i.p.
[5] = system: Swiss Webster mice; assay: Saelens drug-precipitated withdrawal in the mouse, TCAP-1 pre-morphine (Example 1); assay type: in vivo

Compound	number of jumps/20 minutes after naloxone [1]	plasma corticosterone levels [2]	number of jumps in 20 minutes after naloxone [3]	number of jumps/20 minutes [4]	Mean # Jumps over 20 Minutes ([5]; TCAP-1 10 nmole/kg s.c. days 1-3, morphine 32 mg/kg i.p. days 4-5, naloxone 10 mg/kg i.p., n = 3)	Mean # Jumps over 20 Minutes ([5]; TCAP-1 25 nmole/kg s.c. days 1-3, morphine 32 mg/kg i.p. days 4-5, naloxone 10 mg/kg i.p., n = 9)	Mean # Jumps over 20 Minutes ([5]; TCAP-1 50 nmole/kg s.c. days 1-3, morphine 32 mg/kg i.p. days 4-5, naloxone 10 mg/kg i.p., n = 9)	Mean # Jumps over 20 Minutes ([5]; TCAP-1 100 nmole/kg s.c. days 1-3, morphine 32 mg/kg i.p. days 4-5, naloxone 10 mg/kg i.p., n = 9)	Mean # Jumps over 20 Minutes ([5]; TCAP-1 250 nmole/kg s.c. days 1-3, morphine 32 mg/kg i.p. days 4-5, naloxone 10 mg/kg i.p., n = 9)	jump rate after naloxone-precipitated morphine withdrawal ([5]; TCAP-1 10-250 nmole/kg pre-morphine vs. morphine alone)	dose needed to approach TCAP-1 250 nmole/kg effect on corticosterone levels [2]	Mean # Jumps over 20 Minutes ([5]; Group 8: saline days 1-3, saline day 4-5, MK801 on day 5, no morphine, no naloxone, n = 4)
Teneurin C-Terminal Associated Peptide-1 (QQLLGTGRVQGYDGYFVLSVEQYLELSDSANNIHFMRQSEI-NH2) [TCAP-1, mouse TCAP-1 in some experiments]	much more effective and at lower dosages in significantly lowering the number of jumps	more effective in reducing plasma corticosterone levels in the mice at lower dosage levels	significantly reduced the number of jumps	more effective in reducing the number of jumps/20 minutes	47	47	42	32	16	reduced jump rates in a dose dependent manner	–	–
CCCCN(CC)c1nc(C)nc2c1c(C)cn2-c1c(C)cc(C)cc1C [CP154,526]	–	still had an effect	–	–	–	–	–	–	–	–	at least 50 mg/kg	–
C[C@]12N[C@H](Cc3ccccc31)c1ccccc12 [MK801, reference compound]	–	–	–	–	–	–	–	–	–	–	–	0
